Measured values from PubChem BioAssay (NCI).
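96-well plates; 48 h exposure; 5 concentrations. Endpoints by linear interpolation between flanking doses. Not reached: highest tested concentration assigned. GI50: concentration for 50% inhibition of growth. The concentration for full growth arrest is given as TGI.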

Key:
Assay in all cases: NCI tumour cell line growth inhibition, 48 h
[1] = test system: UACC-62 melanoma
[2] = test system: SNB-75 CNS
[3] = test system: CAKI-1 renal
[4] = test system: SK-OV-3 ovarian
[5] = test system: HL-60(TB) leukemia
[6] = test system: KM12 colon
[7] = test system: OVCAR-5 ovarian
[8] = test system: MOLT-4 leukemia
[9] = test system: EKVX NSCLC
[10] = test system: SR leukemia
[11] = test system: T-47D breast
[12] = test system: RPMI-8226 leukemia
[13] = test system: IGROV1 ovarian
[14] = test system: DU-145 prostate
[15] = test system: TK-10 renal
[16] = test system: SK-MEL-5 melanoma
[17] = test system: SF-295 CNS
[18] = test system: SW-620 colon
[19] = test system: SNB-19 CNS
[20] = test system: HOP-62 NSCLC
[21] = test system: NCI-H460 lung
[22] = test system: SK-MEL-2 melanoma
[23] = test system: SF-539 CNS
[24] = test system: PC-3 prostate
[25] = test system: A498 renal
[26] = test system: HCT-15 colon
[27] = test system: BT-549 breast
[28] = test system: HCC-2998 colon
[29] = test system: 786-0 renal
[30] = test system: HS 578T breast
[31] = test system: NCI-H23 lung
[32] = test system: OVCAR-8 ovarian
[33] = test system: UO-31 renal
[34] = test system: CCRF-CEM leukemia
[35] = test system: SF-268 CNS
[36] = test system: HT29 colon
[37] = test system: NCI-H522 lung
[38] = test system: NCI/ADR-RES ovarian
[39] = test system: RXF 393 renal
[40] = test system: SN12C renal
[41] = test system: SK-MEL-28 melanoma
[42] = test system: UACC-257 melanoma
[43] = test system: LOX IMVI melanoma
[44] = test system: MALME-3M melanoma
[45] = test system: K-562 leukemia
[46] = test system: OVCAR-4 ovarian
[47] = test system: U251 CNS
[48] = test system: HCT-116 colon
[49] = test system: MDA-MB-231 breast
[50] = test system: M14 melanoma
[51] = test system: MDA-MB-435
[52] = test system: A549 NSCLC
[53] = test system: MCF7 breast
[54] = test system: COLO 205 colon
[55] = test system: NCI-H226 lung
[56] = test system: ACHN renal

`O=C(NCc1ncc[nH]1)c1ccc(-c2nc3ccc4[nH]ncc4c3c3c2CCCC3)cc1` was tested, and the GI50 [1] was 1.38 µM, the TGI [1] was 6.47 µM and the GI50 [2] was 1.61 µM. The TGI [2] was 5.2 µM, the GI50 [3] was 1.08 µM and the TGI [3] was 4.8 µM. For the same compound, the GI50 [4] was 0.707 µM, the TGI [4] was 3.3 µM and the GI50 [5] was 1.64 µM. The TGI [5] was 8.98 µM, the GI50 [6] was 1.61 µM and the TGI [6] was 9.87 µM. It also gave a GI50 [7] of 9.18 µM, a TGI [7] of over 50 µM and a GI50 [8] of 1.51 µM. The TGI [8] was 16.8 µM, the GI50 [9] was 2.86 µM and the TGI [9] was 24.2 µM. For the same compound, the GI50 [10] was 0.549 µM, the TGI [10] was 27.7 µM and the GI50 [11] was 1.18 µM. The TGI [11] was 6.13 µM, the GI50 [12] was 6.15 µM and the TGI [12] was 23.4 µM. It also gave a GI50 [13] of 0.818 µM, a TGI [13] of 7.64 µM and a GI50 [14] of 2.17 µM. The TGI [14] was over 50 µM, the GI50 [15] was 1.66 µM and the TGI [15] was over 50 µM. For the same compound, the GI50 [16] was 1.93 µM, the TGI [16] was 7.51 µM and the GI50 [17] was 3 µM. For the same compound, the TGI [17] was 14.9 µM, the GI50 [18] was 1.36 µM and the TGI [18] was over 50 µM. For the same compound, the GI50 [19] was 1.85 µM, the TGI [19] was 38.1 µM and the GI50 [20] was 1.5 µM. The TGI [20] was 9.57 µM, the GI50 [21] was 1.94 µM and the TGI [21] was 7.83 µM. The GI50 [22] was 1.1 µM, the TGI [22] was 2.87 µM and the GI50 [23] was 1.21 µM. It also gave a TGI [23] of 5.85 µM, a GI50 [24] of 1.81 µM and a TGI [24] of 32 µM. For the same compound, the GI50 [25] was 0.958 µM, the TGI [25] was 4.38 µM and the GI50 [26] was 6.28 µM. For the same compound, the TGI [26] was over 50 µM, the GI50 [27] was 0.957 µM and the TGI [27] was 5.48 µM. It also gave a GI50 [28] of 1.94 µM, a TGI [28] of 8.73 µM and a GI50 [29] of 1.97 µM. The TGI [29] was 12.1 µM, the GI50 [30] was 1.25 µM and the TGI [30] was 7.65 µM. For the same compound, the GI50 [31] was 1.82 µM, the TGI [31] was 8.21 µM and the GI50 [32] was 1.81 µM. It also gave a TGI [32] of 17.3 µM, a GI50 [33] of 7.57 µM and a TGI [33] of 22.6 µM. It also gave a GI50 [34] of 1.29 µM, a TGI [34] of over 50 µM and a GI50 [35] of 1.33 µM. It also gave a TGI [35] of 8.88 µM, a GI50 [36] of 2.66 µM and a TGI [36] of over 50 µM. It also gave a GI50 [37] of 0.869 µM, a TGI [37] of 2.85 µM and a GI50 [38] of over 50 µM. For the same compound, the TGI [38] was over 50 µM, the GI50 [39] was 0.603 µM and the TGI [39] was 2.76 µM. For the same compound, the GI50 [40] was 1.69 µM, the TGI [40] was 10.6 µM and the GI50 [41] was 1.19 µM. The TGI [41] was 4.6 µM, the GI50 [42] was 3.61 µM and the TGI [42] was 18.8 µM. The GI50 [43] was 1.46 µM, the TGI [43] was 6.73 µM and the GI50 [44] was 1.31 µM. The TGI [44] was 3.67 µM, the GI50 [45] was 2.02 µM and the TGI [45] was over 50 µM. For the same compound, the GI50 [46] was 3.19 µM, the TGI [46] was 19.7 µM and the GI50 [47] was 1.68 µM. The TGI [47] was 11.6 µM, the GI50 [48] was 0.58 µM and the TGI [48] was over 50 µM. For the same compound, the GI50 [49] was 1.84 µM, the TGI [49] was 10.9 µM and the GI50 [50] was 1.43 µM. For the same compound, the TGI [50] was 7.44 µM, the GI50 [51] was 1.66 µM and the TGI [51] was 7.05 µM. For the same compound, the GI50 [52] was 8.04 µM, the TGI [52] was over 50 µM and the GI50 [53] was 1.17 µM. The TGI [53] was 6.76 µM, the GI50 [54] was 1.12 µM and the TGI [54] was 3.44 µM. For the same compound, the GI50 [55] was 1.4 µM, the TGI [55] was 17.3 µM and the GI50 [56] was 1.6 µM. For the same compound, the TGI [56] was over 50 µM.
